Converted amounts (≈) assume the structure as drawn. Read-outs that look alike come from different tables or passages of the source.
Key:
MSV-induced tumor = assay: Effect on the evolution of an MSV-induced tumor in newborn NMRI mice; assay type: in vivo
Description: Effect of compounds of the general formula I on the evolution
of an MSV-induced tumor in newborn NMRI mice

HIV-1 = assay: Effect on multiplication of HIV-1 in tissue cultures of MT-4 cells (suppression of cytopathogenic effect); assay type: cell-based
Description: (§1) Effect of compounds of the general formula I on multi-
(§2) plication of HIV-1 in tissue cultures of MT-4 cells
^a Dose, suppressing by 50% the cytopatogenic effect of HIV1 in MT4

[1] = Cytotoxicity: dose decreasing the viability of MT4 cells to one half; assay type: cell-based; details: human, mt-4 cells
Description: as §1, §2
^b dose, decreasing the viability of MT4 cells to one half;

[2] = system: retroviruses, such as HIV; details: cited from earlier work
HIV = details: cited from earlier work
[3] = system: simian immunodefficiency virus (SIV); details: experimental animals; cited from earlier work
murine leukemia virus = details: experimental animals; cited from earlier work
Moloney sarcoma virus = details: experimental animals; cited from earlier work
[4] = Human immunodeficiency virus 1, MT4, HIV-1, MT-4 cells, read-out: ED50 (dose, suppressing by 50% the cytopatogenic effect of HIV1 in MT4 cells)
[5] = read-out: CD50 (dose, decreasing the viability of MT4 cells to one half)

SMILES	Median day of tumor formation (MSV-induced tumor; dose 1 mg/kg/day)	Median survival time (MSV-induced tumor; dose 1 mg/kg/day) [days]	Median day of tumor formation (MSV-induced tumor; dose 5 mg/kg/day)	Median survival time (MSV-induced tumor; dose 5 mg/kg/day) [days]	Median day of tumor formation (MSV-induced tumor; dose 20 mg/kg/day)	SI (ratio CD50/ED50) (HIV-1; HIV-1, MT-4 cells)	effect on HIV in tissue cultures (HIV)	other results
Nc1ncnc2c1ncn2CC(CF)OCP(=O)(O)O (racemic) [Compound 1, 9-(RS)-(3-fluoro-2-phosphonylmethoxypropyl)-adenine]	5.8	10.9	7.5	14.4	> 13	> 90		EC50 (HIV-1; [4]): 11.2 µg/mL (≈ 36.7 µM); CC50 [1, 5]: > 1000 µg/mL
Cc1cn([C@H]2C=C[C@@H](CO)O2)c(=O)[nH]c1=O [2',3'-dideoxy-2',3'-didehydrothymidine]								efficiency in the treatment of experimental animals [2]: efficient in the treatment of experimental animals
Nc1nc2c(ncn2CC(CF)OCP(=O)(O)O)c(=O)[nH]1 (racemic) [Compound 2]	5.2	11.7	8.5	12.5	> 13	50		Median survival time (MSV-induced tumor; dose 20 mg/kg/day): 10 days; EC50 (HIV-1; [4]): 4.7 µg/mL (≈ 14.6 µM); CC50 [1, 5]: 233 µg/mL (≈ 725 µM)
O=C(O)C1=CC(=C(c2ccc(O)c(C(=O)O)c2)c2ccc(O)c(C(=O)O)c2)C=CC1=O [aurine-tricarboxylic acid]							significant effects in tissue cultures	
Nc1ncnc2c1ncn2CCOCP(=O)(O)O [IX, reference compound]	6.1	14.7	10.1	17.2	> 13	7.2	have proven its effect	effect on simian immunodefficiency virus (SIV) [3]: have proven its effect; EC50 (HIV-1; Human immunodeficiency virus 1, MT4, read-out: ED50 (dose, suppressing by 50% the cytopatogenic effect of HIV1 in MT4 cells)): 2 µg/mL (≈ 7.32 µM); CC50 [1]: 14.2 µg/mL (≈ 52 µM); effect on murine leukemia virus (murine leukemia virus): have proven its effect; effect on Moloney sarcoma virus (Moloney sarcoma virus): have proven its effect
Nc1ccn([C@H]2CC[C@@H](CO)O2)c(=O)n1 [2',3'-dideoxycytidine]								efficiency in the treatment of experimental animals [2]: efficient in the treatment of experimental animals
Cc1cc(-c2ccc(/N=N/c3ccc4c(S(=O)(=O)O)cc(S(=O)(=O)O)c(N)c4c3O)c(C)c2)ccc1/N=N/c1ccc2c(S(=O)(=O)O)cc(S(=O)(=O)O)c(N)c2c1O [Evans Blue]							significant effects in tissue cultures	
